Assay results reported in patent US8791102B2, “Acetanilide sphingosine-1-phosphate receptor antagonists” (Exelixis, Inc., priority 2008, dated 2014).

Target: T1, human S1P1 receptors (Homo sapiens, UniProt P21453)
T1 construct: host or cells: HEK293
Test: S1P1R antagonist assay (fluorescent membrane potential dye, cAMP readout)
Type: cell-based
Settings: HEK293 cells expressing human S1P1 receptors and CNG channel; 500 nM NECA; S1P1R agonist 10 nM; 90 minutes; read-out: EC50 or IC50 value
From the text: The S1P1R antagonist assay is a fluorescent membrane potential dye measurement assay, indicative of intracellular cAMP changes due to G protein-coupled receptor activation. HEK293 cells engineered to express human S1P1 receptors and a cyclic nucleotide-gated (CNG) channel are obtained from BD Biosciences, 80300-250. The CNG channels are activated by elevated levels of cAMP, resulting in ion flux and cell membrane depolarization. Membrane depolarization is detected with a membrane potential dye. Stimulation of the cells with 5′-(N-ethylcarboxamido)adenosine (NECA), an A2b receptor agonist (Sigma, E2387), elicits an A2bR-dependent increase in cAMP.
Subsequent exposure of the cells to a S1P1R agonist suppresses the NECA induced increase in cAMP through S1P1R-specific signaling by inhibiting adenylyl cyclase and the formation of cAMP from ATP. The degree to which a test compound overcomes the S1P1R agonist suppression of the NECA induced increase in cAMP is a measure of S1P1R antagonist activity. Antagonist activity is quantified as the IC50 (i.e., the concentration needed to elicited one-half of the maximum response of the test compound) and/or as the EC50 (i.e., the concentration needed to elicited one-half of the NECA induced stimulation).
Day 1: Freshly thawed cells were plated into 384-well plates (Corning, 3683) at a density of 14,000 cells/well in 20 μL, complete media and incubated for 16 hours at 37° C., 5% CO2 and 99% relative humidity. Complete media included Dulbecco's modified Eagle's medium (Invitrogen, 11965-092), 10% Fetal bovine serum (Hyclone, SH30071.03), 250 μg/mL geneticin (Invitrogen, 10131-027), and 1 μg/mL Puromycin (Fluka, 82595).
Day 2: Membrane potential dye (20 μL, BD Biosciences, 341833) was added to each well and the plates were incubated for 2.5 hours at ambient temperature. Test compounds (20 μL) were added to the wells at various concentrations (≦10 μM, 1 to 3 dilutions) in a NECA base solution and incubated for 90 minutes in the presence of the S1P1R agonist {4-((4-phenyl-5-trifluoromethyl-2-thienyl)methoxy)benzyl}-3-azetidinecarboxylic acid (10 nM). The NECA-base solution contained Dulbecco's phosphate-buffered saline (Invitrogen, 14190-136), 2.5% DMSO (Fluka, 41648), 25 μM Ro 20-1724 (Sigma, B8279), and 500 nM NECA).
Assay plates were read with a PerkinElmer EnVision reader (Excitation 350 nm, Emission 590 nm) at time T=0 minutes, before compound addition and at time T=90 minutes. The signal was calculated as the ratio T90/T0. Data was analyzed in ActivityBase XE and graphs showing log of compound concentration (X-axis) vs. % activity (Y-axis) were generated for IC50 determinations. Percent activity was calculated with the following formula: (Signal−Agonist Control Signal)/(NECA Control Signal−Agonist Control Signal)×100.

T1 sequence (P21453 whole entry): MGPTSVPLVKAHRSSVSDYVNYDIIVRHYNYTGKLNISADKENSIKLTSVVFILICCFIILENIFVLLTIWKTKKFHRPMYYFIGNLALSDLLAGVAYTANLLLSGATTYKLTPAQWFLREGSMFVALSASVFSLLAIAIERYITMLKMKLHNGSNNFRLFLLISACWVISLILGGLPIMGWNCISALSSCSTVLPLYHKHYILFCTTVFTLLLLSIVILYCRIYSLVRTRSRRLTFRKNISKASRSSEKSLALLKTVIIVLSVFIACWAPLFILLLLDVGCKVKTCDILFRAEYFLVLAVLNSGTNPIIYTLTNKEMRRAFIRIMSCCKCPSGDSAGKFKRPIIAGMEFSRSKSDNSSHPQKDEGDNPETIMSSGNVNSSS

Structure (SMILES) | IC50 [nM]
O=C(Nc1ccc(Oc2ccc(F)cc2)cc1)[C@@H]1C[C@@H](Cc2ccccc2Cl)CN1C(=O)Cn1nccn1 [Compound 56, (2S,4R)-1-(2-(2H-1,2,3-triazol-2-yl)acetyl)-4-(2-chlorobenzyl)-N-(4-(4-fluorophenoxy)phenyl)pyrrolidine-2-carboxamide] | ≤ 300
O=C(Nc1ccc(Oc2ccc(F)cc2)cc1)[C@@H]1C[C@@H](Cc2ccccc2Cl)CN1C(=O)Cn1cncn1 [Compound 57, (2S,4R)-1-(2-(1H-1,2,4-triazol-1-yl)acetyl)-4-(2-chlorobenzyl)-N-(4-(4-fluorophenoxy)phenyl)pyrrolidine-2-carboxamide] | ≤ 300
O=C(Nc1ccc(Oc2ccc(F)cc2)cc1)[C@@H]1C[C@@H](Cc2ccccc2)CN1C(=O)Cn1nccn1 [Compound 58, (2S,4R)-1-(2-(2H-1,2,3-triazol-2-yl)acetyl)-4-benzyl-N-(4-(4-fluorophenoxy)phenyl)pyrrolidine-2-carboxamide] | ≤ 300
O=C(Cc1c[nH]cn1)N[C@@H](COCc1ccccc1)c1nc2cc(Oc3ccc(F)cc3)ccc2[nH]1 [Compound 59, (R)—N-(2-(benzyloxy)-1-(5-(4-fluorophenoxy)-1H-benzo[d]imidazol-2-yl)ethyl)-2-(1H-imidazol-4-yl)acetamide] | 300 to 1000
CC(=O)N[C@@H](COCc1ccccc1)c1nc2cc(Oc3ccc(F)cc3)ccc2[nH]1 [Compound 60, (R)—N-(2-(benzyloxy)-1-(5-(4-fluorophenoxy)-1H-benzo[d]imidazol-2-yl)ethyl)acetamide] | > 1000
O=C(Nc1ccc(Oc2ccc(F)cc2)cc1)[C@@H]1C[C@@H](Cc2cccc(Cl)c2)CN1C(=O)Cn1cncn1 [Compound 61, (2S,4R)-1-(2-(1H-1,2,4-triazol-1-yl)acetyl)-4-(3-chlorobenzyl)-N-(4-(4-fluorophenoxy)phenyl)pyrrolidine-2-carboxamide] | ≤ 300
COc1ccc([C@@H]2C[C@@H](C(=O)Nc3ccc(Oc4ccc(F)cc4)cc3)N(C(=O)Cn3cncn3)C2)cc1 [Compound 62, (2S,4S)-1-(2-(1H-1,2,4-triazol-1-yl)acetyl)-N-(4-(4-fluorophenoxy)phenyl)-4-(4-methoxyphenyl)pyrrolidine-2-carboxamide] | ≤ 300
CC1CCCN1CC(=O)N[C@@H](COCc1ccccc1)C(=O)Nc1ccc(Oc2ccc(F)cc2)cc1 (stereo partly drawn) [Compound 63, (2S)-3-(benzyloxy)-N-(4-(4-fluorophenoxy)phenyl)-2-(2-(2-methylpyrrolidin-1-yl)acetamido)propanamide] | > 1000
O=C(Nc1ccc(Oc2ccc(F)cc2)cc1)[C@@H]1C[C@@H](Cc2cccs2)CN1C(=O)Cn1nccn1 [Compound 64, (2S,4S)-1-(2-(2H-1,2,3-triazol-2-yl)acetyl)-N-(4-(4-fluorophenoxy)phenyl)-4-(thien-2-ylmethyl)pyrrolidine-2-carboxamide] | ≤ 300
O=C(Nc1ccc(Oc2ccc(F)cc2)cc1)[C@@H]1C[C@@H](Cc2ccc(Cl)s2)CN1C(=O)Cn1ccnn1 [Compound 65, (2S,4S)-1-(2-(1H-1,2,3-triazol-1-yl)acetyl)-4-((5-chlorothien-2-yl)methyl)-N-(4-(4-fluorophenoxy)phenyl)pyrrolidine-2-carboxamide] | ≤ 300
O=C(Nc1ccc(Oc2ccc(F)cc2)cc1)[C@@H]1C[C@@H](Cc2ccc(Cl)s2)CN1C(=O)Cn1nccn1 [Compound 66, (2S,4S)-1-(2-(2H-1,2,3-triazol-2-yl)acetyl)-4-((5-chlorothien-2-yl)methyl)-N-(4-(4-fluorophenoxy)phenyl)pyrrolidine-2-carboxamide] | ≤ 300
O=C(Nc1ccc(Oc2ccc(F)cc2)cc1)[C@@H]1C[C@@H](Cc2ccc(Cl)s2)CN1C(=O)Cn1cncn1 [Compound 67, (2S,4S)-1-(2-(1H-1,2,4-triazol-1-yl)acetyl)-4-((5-chlorothien-2-yl)methyl)-N-(4-(4-fluorophenoxy)phenyl)pyrrolidine-2-carboxamide] | ≤ 300
COc1cccc(C[C@@H]2C[C@@H](C(=O)Nc3ccc(Oc4ccc(F)cc4)cc3)N(C(=O)Cn3ccnn3)C2)c1 [Compound 68, (2S,4R)-1-(2-(1H-1,2,3-triazol-1-yl)acetyl)-N-(4-(4-fluorophenoxy)phenyl)-4-(3-methoxybenzyl)pyrrolidine-2-carboxamide] | ≤ 300
COc1cccc(C[C@@H]2C[C@@H](C(=O)Nc3ccc(Oc4ccc(F)cc4)cc3)N(C(=O)Cn3nccn3)C2)c1 [Compound 69, (2S,4R)-1-(2-(2H-1,2,3-triazol-2-yl)acetyl)-N-(4-(4-fluorophenoxy)phenyl)-4-(3-methoxybenzyl)pyrrolidine-2-carboxamide] | ≤ 300
COc1cccc(C[C@@H]2C[C@@H](C(=O)Nc3ccc(Oc4ccc(F)cc4)cc3)N(C(=O)Cn3cncn3)C2)c1 [Compound 70, (2S,4R)-1-(2-(1H-1,2,4-triazol-1-yl)acetyl)-N-(4-(4-fluorophenoxy)phenyl)-4-(3-methoxybenzyl)pyrrolidine-2-carboxamide] | ≤ 300
O=C(Nc1ccc(Oc2ccc(F)cc2)cc1)[C@@H]1C[C@@H](Cc2ccc(F)cc2)C(=O)N1C(=O)Cn1cncn1 [Compound 71, (2S,4R)-1-(2-(1H-1,2,4-triazol-1-yl)acetyl)-4-(4-fluorobenzyl)-N-(4-(4-fluorophenoxy)phenyl)-5-oxopyrrolidine-2-carboxamide] | ≤ 300
O=C(Nc1ccc(Oc2ccc(F)cc2)cc1)[C@@H]1C[C@@H](Cc2ccsc2)CN1C(=O)Cn1cncn1 [Compound 72, (2S,4R)-1-(2-(1H-1,2,4-triazol-1-yl)acetyl)-N-(4-(4-fluorophenoxy)phenyl)-4-(thiophen-3-ylmethyl)pyrrolidine-2-carboxamide] | ≤ 300
Cc1cc(Oc2ccc(NC(=O)[C@@H]3C[C@@H](Cc4ccc(F)cc4)CN3C(=O)Cn3cncn3)cc2)ccc1F [Compound 73, (2S,4R)-1-(2-(1H-1,2,4-triazol-1-yl)acetyl)-N-(4-(4-fluoro-3-methylphenoxy)phenyl)-4-(4-fluorobenzyl)pyrrolidine-2-carboxamide] | ≤ 300
Cc1cc(F)ccc1Oc1ccc(NC(=O)[C@@H]2C[C@@H](Cc3ccc(F)cc3)CN2C(=O)Cn2cncn2)cc1 [Compound 74, (2S,4R)-1-(2-(1H-1,2,4-triazol-1-yl)acetyl)-N-(4-(4-fluoro-2-methylphenoxy)phenyl)-4-(4-fluorobenzyl)pyrrolidine-2-carboxamide] | ≤ 300
O=C(Nc1ccc(Oc2ccc(F)cc2)cc1)[C@@H]1C[C@@H](Cc2ccc(F)cc2)CN1C(=O)Cn1ccnn1 [Compound 75, (2S,4R)-1-(2-(1H-1,2,3-triazol-1-yl)acetyl)-4-(4-fluorobenzyl)-N-(4-(4-fluorophenoxy)phenyl)pyrrolidine-2-carboxamide] | ≤ 300
O=C(Nc1ccc(Oc2ccc(F)cc2)cc1)[C@@H]1C[C@H](Cc2ccc(F)cc2)CN1C(=O)Cn1cncn1 [Compound 76, (2S,4S)-1-(2-(1H-1,2,4-triazol-1-yl)acetyl)-4-(4-fluorobenzyl)-N-(4-(4-fluorophenoxy)phenyl)pyrrolidine-2-carboxamide] | ≤ 300
O=C(Nc1ccc(Oc2ccc(F)cc2)cc1)[C@@H]1C[C@@H](c2ccccc2)CN1C(=O)Cn1nccn1 [Compound 77, (2S,4S)-1-(2-(2H-1,2,3-triazol-2-yl)acetyl)-N-(4-(4-fluorophenoxy)phenyl)-4-phenylpyrrolidine-2-carboxamide] | 300 to 1000
O=C(Nc1ccc(Oc2ccc(F)cc2)cc1)[C@@H]1C[C@@H](c2ccccc2)CN1C(=O)Cn1cncn1 [Compound 78, (2S,4S)-1-(2-(1H-1,2,4-triazol-1-yl)acetyl)-N-(4-(4-fluorophenoxy)phenyl)-4-phenylpyrrolidine-2-carboxamide] | 300 to 1000
O=C(Nc1ccc(Oc2ccc(Cl)cc2)cc1)[C@@H]1C[C@@H](Cc2ccccc2)CN1C(=O)Cn1cncn1 [Compound 79, (2S,4R)-1-(2-(1H-1,2,4-triazol-1-yl)acetyl)-4-benzyl-N-(4-(4-chlorophenoxy)phenyl)pyrrolidine-2-carboxamide] | ≤ 300
O=C(Nc1ccc(Oc2ccc(F)cc2)cc1)[C@@H]1C[C@H](NCc2ccccc2)CN1C(=O)Cn1cncn1 [Compound 80, (2S,4S)-1-(2-(1H-1,2,4-triazol-1-yl)acetyl)-4-(benzylamino)-N-(4-(4-fluorophenoxy)phenyl)pyrrolidine-2-carboxamide] | 300 to 1000
